According to US9096593B2, “Compounds and methods for kinase modulation, and indications therefor” (Plexxikon Inc., priority 2009, dated 2015):
Where two headings read alike, the source gives them in different places.

Key:
[1] = biological target: BCR-KIT/BaF3 cells (Homo sapiens, UniProt P10721); experiment: BCR-KIT/BaF3 cell proliferation assay (ATPlite); assay type: cell-based; settings: read-out: BCR/BaF3 (IC50 μM) Kit
Method: Compounds are assessed in a variety of cell based assays. For example BCR-FMS/BaF3, BCR-KIT/BaF3, M-NFS-60, M-07e, and BAC1.2F5 cell proliferation assays are used to assess inhibitory activity of Fms or Kit and MV-4-11 cell proliferation assay is used to assess inhibitory activity in Flt-3. Reagent and assay conditions are as follows: • BCR-FMS/BaF3 and BCR-KIT/BaF3 cells: • Maintained in RPMI containing 10% FBS, 1% PenStrep, 1% NEAA, and 1% L-Glutamine, supplemented with 1 mg/mL G418 and 5% WEHI-CM (or recombinant murine IL-3). • Confluent cells are split 1:50 to 1:100 every 3-4 days. • M-NFS-60 cells (ATCC #CRL-1838): • Maintained in RPMI containing 10% FBS, 1% Hepes, 1% NaPyruvate, and 0.45% Glucose, supplemented with 62 ng/mL murine M-CSF. • Confluent cells are split 1:20 every 3-4 days. • M-07e cells (DSMZ #ACC 104): • Maintained in IMDM containing 10% FBS, supplemented with either 200 ng/mL human SCF or […] SCF (R&D Systems 255-SC). • Confluent cells are split 1:5 to 1:10 every 3-4 days. • BAC1.2F5 cells: • Maintained in Alpha-MEM containing 10% Newborn Calf Serum (Invitrogen #26010-074) supplemented with 36 ng/mL murine M-CSF. • Confluent cells are split 1:4 every 3-4 days. • MV-4-11 cells: • Maintained in Iscove's Modified Dulbecco's Medium containing 10% FBS. • Confluent cells are split 1:4 every 3-4 days. On day 1, cells are counted, then centrifuged in a conical tube for 5 minutes at 1000 rpm. The supernatant is removed and cells are re-suspended as follows: • BCR-FMS/BaF3 and BCR-KIT/BaF3: resuspend in growth media+1 mg/mL G418 (without WEHI/IL-3) to 2×10^5 cells/mL. • M-NFS-60: resuspend in growth media +62 ng/mL murine M-CSF to 5×10^5 cells/mL. • M-07e: resuspend in growth media +200 ng/mL human SCF to 5×10^5 cells/mL. • BAC1.2F5: resuspend in growth media +36 ng/mL murine M-CSF to 1.4×10^5 cells/mL. • MV-4-11: resuspend in growth media +10% FBS to 5×10^5 cells/mL. The cells are plated (50 μL) in each well of a 96-well dish (Corning 3610) and incubated at 37° C. in 5% CO2 overnight, cells plated to a final concentration of cells as follows: • BCR-FMS/BaF3 and BCR-KIT/BaF3: 10,000 cells per well. • M-NFS-60: 25,000 cells per well. • M-07e: 25,000 cells per well. • BAC1.2F5: 7,000 cells per well. • MV-4-11: 25,000 cells per well. On day 2, compound at a maximum concentration of 5 mM is serially diluted 1:3 for a total of 8 point titration with DMSO as a control. A 1 μL aliquot of each dilution point is added to 249 μL growth media and 50 μL is added to a well containing cells, providing 10 μM compound for the maximum concentration point. The cells are incubated for 3 days at 37° C. in 5% CO2. On day 5, ATPlite 1 step Luminescence Assay System (Perkin Elmer #6016739) is brought to room temperature along with the cell cultures. ATPlite is added to each well as follows: • BCR-FMS/BaF3 and BCR-KIT/BaF3: 25 μL per well. • M-NFS-60: 25 μL per well. • M-07c: 40 μL per well. • BAC1.2F5: 50 μL per well. • MV-4-11: 40 μL per well. The cells are incubated at room temperature for 10 minutes, then luminescence is read on Safire reader. The measured luminescence correlates directly with cell number, such that the reading as a function of compound concentration is used to determine the IC50 value.

[2] = biological target: BCR-FMS/BaF3 cells (Homo sapiens, UniProt P07333); experiment: BCR-FMS/BaF3 cell proliferation assay (ATPlite); assay type: cell-based
Method: Compounds are assessed in a variety of cell based assays. For example BCR-FMS/BaF3, BCR-KIT/BaF3, M-NFS-60, M-07e, and BAC1.2F5 cell proliferation assays are used to assess inhibitory activity of Fms or Kit and MV-4-11 cell proliferation assay is used to assess inhibitory activity in Flt-3. […] On day 1, cells are counted, then centrifuged in a conical tube for 5 minutes at 1000 rpm. The supernatant is removed and cells are re-suspended as follows: • BCR-FMS/BaF3 and BCR-KIT/BaF3: resuspend in growth media+1 mg/mL G418 (without WEHI/IL-3) to 2×10^5 cells/mL. • M-NFS-60: resuspend in growth media +62 ng/mL murine M-CSF to 5×10^5 cells/mL. • M-07e: resuspend in growth media +200 ng/mL human SCF to 5×10^5 cells/mL. • BAC1.2F5: resuspend in growth media +36 ng/mL murine M-CSF to 1.4×10^5 cells/mL. • MV-4-11: resuspend in growth media +10% FBS to 5×10^5 cells/mL. […] On day 2, compound at a maximum concentration of 5 mM is serially diluted 1:3 for a total of 8 point titration with DMSO as a control. A 1 μL aliquot of each dilution point is added to 249 μL growth media and 50 μL is added to a well containing cells, providing 10 μM compound for the maximum concentration point. The cells are incubated for 3 days at 37° C. in 5% CO2. […] ATPlite is added to each well as follows: • BCR-FMS/BaF3 and BCR-KIT/BaF3: 25 μL per well. • M-NFS-60: 25 μL per well. • M-07c: 40 μL per well. • BAC1.2F5: 50 μL per well. • MV-4-11: 40 μL per well. The cells are incubated at room temperature for 10 minutes, then luminescence is read on Safire reader. The measured luminescence correlates directly with cell number, such that the reading as a function of compound concentration is used to determine the IC50 value.

[3] = Kit IC50/Fms IC50, BCR-KIT/BaF3 vs BCR-FMS/BaF3 cells
[4] = read-out: BCR/BaF3 (IC50 μM) Fms; BCR-FMS/BaF3 cells
[5] = BCR-FMS/BaF3 cells; read-out: BCR/BaF3 (IC50 μM) Fms
[6] = read-out: Cell based (IC50 μM) BCR/BaF3 (Fms); BCR-FMS/BaF3 cells, 3 days
[7] = BCR-FMS/BaF3 cells, 3 days; read-out: Cell based (IC50 μM) BCR/BaF3 (Fms)

Sequence of BCR-KIT/BaF3 cells (P10721 26-976 limits assumed, change not shown): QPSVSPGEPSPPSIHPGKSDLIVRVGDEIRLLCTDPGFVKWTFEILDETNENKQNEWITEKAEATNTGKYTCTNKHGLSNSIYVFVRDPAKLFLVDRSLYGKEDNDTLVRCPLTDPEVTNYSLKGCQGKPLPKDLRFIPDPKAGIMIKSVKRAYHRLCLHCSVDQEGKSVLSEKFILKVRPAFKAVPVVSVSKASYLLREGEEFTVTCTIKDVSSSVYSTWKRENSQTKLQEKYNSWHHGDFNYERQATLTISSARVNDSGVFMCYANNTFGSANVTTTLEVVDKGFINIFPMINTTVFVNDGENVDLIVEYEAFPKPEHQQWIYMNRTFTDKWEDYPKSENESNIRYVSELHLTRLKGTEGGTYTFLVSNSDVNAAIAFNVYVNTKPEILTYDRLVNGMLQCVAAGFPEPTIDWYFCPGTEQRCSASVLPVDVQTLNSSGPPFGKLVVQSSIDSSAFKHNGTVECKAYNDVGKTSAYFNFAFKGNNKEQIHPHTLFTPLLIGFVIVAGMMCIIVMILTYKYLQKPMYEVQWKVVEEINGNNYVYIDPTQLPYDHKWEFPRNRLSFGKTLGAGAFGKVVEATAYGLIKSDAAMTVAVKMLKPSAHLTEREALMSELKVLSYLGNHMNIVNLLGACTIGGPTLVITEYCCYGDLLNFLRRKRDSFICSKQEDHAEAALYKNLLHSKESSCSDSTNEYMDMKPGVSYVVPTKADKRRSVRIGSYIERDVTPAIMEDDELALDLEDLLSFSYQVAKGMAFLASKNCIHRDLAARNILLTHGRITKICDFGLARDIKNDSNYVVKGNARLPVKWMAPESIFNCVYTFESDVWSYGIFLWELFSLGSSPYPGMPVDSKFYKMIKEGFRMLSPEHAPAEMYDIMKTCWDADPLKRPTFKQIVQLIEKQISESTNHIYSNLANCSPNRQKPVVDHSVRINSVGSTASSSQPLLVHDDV
Sequence of BCR-FMS/BaF3 cells (P07333 20-972 limits assumed, change not shown): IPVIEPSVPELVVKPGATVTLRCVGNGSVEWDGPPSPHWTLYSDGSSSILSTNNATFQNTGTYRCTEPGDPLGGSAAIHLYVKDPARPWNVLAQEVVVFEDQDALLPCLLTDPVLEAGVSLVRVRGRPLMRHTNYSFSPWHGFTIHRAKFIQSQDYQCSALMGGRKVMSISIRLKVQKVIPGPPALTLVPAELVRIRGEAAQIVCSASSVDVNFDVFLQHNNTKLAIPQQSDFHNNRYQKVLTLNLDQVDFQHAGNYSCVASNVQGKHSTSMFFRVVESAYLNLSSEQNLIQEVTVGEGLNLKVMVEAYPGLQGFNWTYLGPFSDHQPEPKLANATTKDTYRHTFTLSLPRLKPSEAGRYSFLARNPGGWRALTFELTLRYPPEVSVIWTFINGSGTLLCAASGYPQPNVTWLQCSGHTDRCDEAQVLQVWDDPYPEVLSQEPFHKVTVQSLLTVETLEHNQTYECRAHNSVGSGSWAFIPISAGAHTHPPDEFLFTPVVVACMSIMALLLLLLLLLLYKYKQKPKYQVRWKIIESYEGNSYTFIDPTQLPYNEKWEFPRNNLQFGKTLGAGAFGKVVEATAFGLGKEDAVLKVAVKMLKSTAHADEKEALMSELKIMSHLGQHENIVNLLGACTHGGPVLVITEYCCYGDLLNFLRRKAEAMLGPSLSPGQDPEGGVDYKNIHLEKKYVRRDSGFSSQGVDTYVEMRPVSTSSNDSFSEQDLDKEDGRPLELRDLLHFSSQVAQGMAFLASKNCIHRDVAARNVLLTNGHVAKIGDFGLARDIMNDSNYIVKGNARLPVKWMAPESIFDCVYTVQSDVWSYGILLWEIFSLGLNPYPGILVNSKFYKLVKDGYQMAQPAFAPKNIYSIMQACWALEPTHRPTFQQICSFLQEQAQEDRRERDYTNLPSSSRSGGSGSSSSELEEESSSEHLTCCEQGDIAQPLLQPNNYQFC

| Structure (SMILES) | IC50 [1] [µM] | BCR/BaF3 selectivity (Kit IC50/Fms IC50) [2, 3] | IC50 [2, 4] [µM] | IC50 [2, 5] [µM] | IC50 [2, 6] [µM] | IC50 [2, 7] [µM] |
| --- | --- | --- | --- | --- | --- | --- |
| Fc1cncc(CNc2ncc(Cc3c[nH]c4ncc(Cl)cc34)cn2)c1 [Compound P-2176, [5-(5-Chloro-1H-pyrrolo[2,3-b]pyridin-3-ylmethyl)-pyrimidin-2-yl]-(5-fluoro-pyridin-3-ylmethyl)-amine] | > 0.1 | >20 | < 0.1 | – | – | – |
| Fc1cc(Cc2c[nH]c3ncc(Cl)cc23)cnc1NCc1ccc(C(F)(F)F)nc1 [Compound P-2172, [5-(5-Chloro-1H-pyrrolo[2,3-b]pyridin-3-ylmethyl)-3-fluoro-pyridin-2-yl]-(6-trifluoromethyl-pyridin-3-ylmethyl)-amine] | < 0.1 | <20 | – | < 0.1 | – | – |
| COc1ncccc1CNc1ncc(Cc2c[nH]c3ncc(C)cc23)cn1 [Compound P-2139, (2-Methoxy-pyridin-3-ylmethyl)-[5-(5-methyl-1H-pyrrolo[2,3-b]pyridin-3-ylmethyl)-pyrimidin-2-yl]-amine] | > 0.1 | <20 | > 0.1 | – | – | – |
| Fc1nc(NCc2ccc(Cl)cn2)ccc1Cc1c[nH]c2ncccc12 [Compound P-2044, (5-Chloro-pyridin-2-ylmethyl)-[6-fluoro-5-(1H-pyrrolo[2,3-b]pyridin-3-ylmethyl)-pyridin-2-yl]-amine] | – | – | – | – | < 0.1 | – |
| Fc1ccc(CNc2ccc(Cc3c[nH]c4ncc(Cl)cc34)cn2)cn1 [Compound P-2004, [5-(5-chloro-1H-pyrrolo[2,3-b]pyridin-3-ylmethyl)-pyridin-2-yl]-(6-fluoro-pyridin-3-ylmethyl)-amine] | < 0.1 | <20 | < 0.1 | – | < 0.1 | – |
| Cc1ccc(CNc2ccc(Cc3c[nH]c4ncc(C)cc34)c(F)n2)nc1 [Compound P-2131, [6-Fluoro-5-(5-methyl-1H-pyrrolo[2,3-b]pyridin-3-ylmethyl)-pyridin-2-yl]-(5-methyl-pyridin-2-ylmethyl)-amine] | > 0.1 | <20 | – | < 0.1 | – | – |
| FC(F)(F)c1ccncc1CNc1ccc(Cc2c[nH]c3ncc(Cl)cc23)cn1 [Compound P-2063, [5-(5-Chloro-1H-pyrrolo[2,3-b]pyridin-3-ylmethyl)-pyridin-2-yl]-(4-trifluoromethyl-pyridin-3-ylmethyl)-amine] | > 0.1 | >20 | < 0.1 | – | – | – |
| COc1ccc(CNc2ccc(Cc3c[nH]c4ncc(F)cc34)c(F)n2)cn1 [Compound P-1622, [6-Fluoro-5-(5-fluoro-1H-pyrrolo[2,3-b]pyridin-3-ylmethyl)-pyridin-2-yl]-(6-methoxy-pyridin-3-ylmethyl)-amine] | > 0.1 | >20 | < 0.1 | – | – | – |
| COc1cnc2[nH]cc(Cc3ccc(NCc4ccc(OC)nc4)nc3F)c2c1 [Compound P-2030, [6-Fluoro-5-(5-methoxy-1H-pyrrolo[2,3-b]pyridin-3-ylmethyl)-pyridin-2-yl]-(6-methoxy-pyridin-3-ylmethyl)-amine] | > 0.1 | >20 | < 0.1 | – | < 0.1 | – |
| COc1ccnc2[nH]cc(Cc3ccc(NCc4ccc(Cl)cc4)nc3F)c12 [Compound P-2037, (4-Chloro-benzyl)-[6-fluoro-5-(4-methoxy-1H-pyrrolo[2,3-b]pyridin-3-ylmethyl)-pyridin-2-yl]-amine] | > 0.1 | <20 | < 0.1 | – | < 0.1 | – |
| Cc1cnc2[nH]cc(Cc3cnc(NCc4cccc(C)n4)nc3)c2c1 [Compound P-2079, (6-Methyl-pyridin-2-ylmethyl)-[5-(5-methyl-1H-pyrrolo[2,3-b]pyridin-3-ylmethyl)-pyrimidin-2-yl]-amine] | > 0.1 | <20 | < 0.1 | – | – | – |
| Cc1cnc2[nH]cc(Cc3cnc(NCc4ccc(Cl)nc4)nc3)c2c1 [Compound P-2078, (6-Chloro-pyridin-3-ylmethyl)-[5-(5-methyl-1H-pyrrolo[2,3-b]pyridin-3-ylmethyl)-pyrimidin-2-yl]-amine] | > 0.1 | >20 | < 0.1 | – | – | – |
| COc1ncc(F)cc1CNc1ccc(Cc2c[nH]c3ncc(NC(C)=O)cc23)c(F)n1 [Compound P-1669, N-(3-{2-fluoro-6-[(5-fluoro-2-methoxy-pyridin-3-ylmethyl)-amino]-pyridin-3-ylmethyl}-1H-pyrrolo[2,3-b]pyridin-5-yl)-acetamide] | > 0.1 | >20 | < 0.1 | – | – | – |
| Clc1cnc2[nH]cc(Cc3ccc(NCc4ccc(Cl)nc4)nc3)c2c1 [Compound P-2003] | < 0.1 | <20 | – | < 0.1 | – | < 0.1 |
| COc1cnc2[nH]cc(Cc3ccc(NCc4cncc(F)c4)nc3F)c2c1 [Compound P-2028, [6-Fluoro-5-(5-methoxy-1H-pyrrolo[2,3-b]pyridin-3-ylmethyl)-pyridin-2-yl]-(5-fluoro-pyridin-3-ylmethyl)-amine] | > 0.1 | >20 | < 0.1 | – | – | – |
| COc1cnc2[nH]cc(Cc3ccc(NCc4ccccc4Cl)nc3F)c2c1 [Compound P-2034, (2-chloro-benzyl)-[6-fluoro-5-(5-methoxy-1H-pyrrolo[2,3-b]pyridin-3-ylmethyl)-pyridin-2-yl]-amine] | – | – | – | – | – | < 0.1 |
